One test has as its target T1, A1 adenosine receptor (Homo sapiens, UniProt P30542).
T1 sequence (P30542 1-326): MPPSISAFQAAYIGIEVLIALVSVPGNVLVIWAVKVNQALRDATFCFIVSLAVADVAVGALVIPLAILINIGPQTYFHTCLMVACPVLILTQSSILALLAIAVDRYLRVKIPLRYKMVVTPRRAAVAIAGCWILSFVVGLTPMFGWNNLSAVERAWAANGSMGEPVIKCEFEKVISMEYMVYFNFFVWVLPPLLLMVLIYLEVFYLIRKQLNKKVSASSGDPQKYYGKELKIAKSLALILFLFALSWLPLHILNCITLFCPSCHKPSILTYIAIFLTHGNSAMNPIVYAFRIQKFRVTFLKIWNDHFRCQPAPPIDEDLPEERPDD
In words: cyclic AMP HTRF functional assay, CHO-K1 (A1). It counts as cell-based. The note with it: CHO-K1 cells. As to the method: Next, the functional activity of 11o against A1 and A2A adenosine receptors was evaluated using c-AMP assay in CHO-K1 (A1) and HEK-293 (A2A) cells.
For functional studies, A1 and A2A receptor cyclic AMP HTRF (homogeneous time resolved fluorescence) assay was performed at EuroscreenFast (Charleroi, Belgium) using CHO-K1 (A1) and HEK293 (A2A) stable cell line with CPA (A1) and NECA (A2A) as reference agonist and DPCPX (A1) and ZM241385 (A2A) as reference antagonist compound.
On the technique in general: In TR-FRET formats the signal depends on donor and acceptor labels being close together.

Test [1] relates to MPTP-lesioned mouse model. In words: MPTP-lesioned mouse model of Parkinson's disease. The class given is in vivo, C57BL/6J mice. The text has this:
In a subsequent study, we investigated the therapeutic efficacy of 11o in PD using an MPTP-lesioned mouse model. This MPTP-lesion mouse model is one of the most well-established PD models and causes an approximately 90% loss of striatal dopamine, as analyzed using HPLC 7 days after the administration of the last dose of MPTP [13].
Male C57BL/6J mice of 10 weeks of age were purchased from Charles River Laboratories (Charles River Laboratories, Freiburg, Germany) and maintained at QPS Austria. All procedures described were reviewed and approved by IACUC at QPS Austria. Animal studies conformed to the Austrial guidelines for the care and use of laboratory animals (Tierversuchsgesetz 2012-TVG 2012, BGB1. I Nr. 114/2012). […]
To test individual nest-building behavior, mice were housed individually in cages containing wood-chip bedding and one square of pressed cotton (‘nestlet’). […] The nestlet was introduced on the day before the evaluation of the nest status in about 2 to 3 h before the dark phase was initiated, and the nest-building behavior was evaluated on the following day of the experiment within 2~3 h after the light-phase start. […] Manipulation of the nestlet and the constitution of the built nest were assessed according to five-point scale as follows: 1. […]

Each structure is given as a SMILES string.

The IC50 is the midpoint of a concentration-inhibition curve. Regarding `Cc1cc(Cn2ncc3c(-c4cccc(C#N)c4F)nc(N)nc32)ccc1N` [11o, 3-(6-Amino-1-(4-amino-3-methylbenzyl)-1H-pyrazolo[3,4-d]pyrimidin-4-yl)-2-fluorobenzonitrile], on A1 adenosine receptor, the “functional activity at A1 receptor” value is “full antagonism”. Also, at A1 adenosine receptor (read-out: IC50, A1 functional antagonism (c-AMP)), the IC50 is 98.8 nM. Further, in test [1] (MPTP-lesioned mice, intranasal 1 and 10 mg/kg, difference not significant), the nest-building activity entry is reported as “partially restored the activity level to near sham level”. Also, the “rescue of striatal dopamine depletion caused by MPTP” value in test [1] (once daily for 7 days, doses up to 10 mg/kg, data not shown) is on record as “unable to rescue dopamine depletion”.

The values above are taken from paper PMC9394284, “Discovery of Novel Dual Adenosine A2A and A1 Receptor Antagonists with 1H-Pyrazolo[3,4-d]pyrimidin-6-amine Core Scaffold as Anti-Parkinson’s Disease Agents” (Pharmaceuticals, 2022).
